In patent publication US9700543B2, “GLP-1 receptor stabilizers and modulators” (Celgene International II SÀRL, priority 2011, dated 2017):

Experiments:
GLP-1R = biological target: T1, GLP-1R (Homo sapiens, UniProt P43220); assay: EC20 GLP-1(9-36) PAM cAMP assay: dose response of compound in the presence of fixed concentration of GLP-1(9-36); format: cell-based; details: compound dose response with fixed GLP-1(9-36), GLP-1R CRE-bla CHO-K1 cells; for EC20 GLP-1 (9-36) PAM Activity max cAMP: Emax as total cAMP; for EC50: cAMP
T1 construct: host or cells: CRE-bla CHO-K1
T1 sequence (P43220 24-463): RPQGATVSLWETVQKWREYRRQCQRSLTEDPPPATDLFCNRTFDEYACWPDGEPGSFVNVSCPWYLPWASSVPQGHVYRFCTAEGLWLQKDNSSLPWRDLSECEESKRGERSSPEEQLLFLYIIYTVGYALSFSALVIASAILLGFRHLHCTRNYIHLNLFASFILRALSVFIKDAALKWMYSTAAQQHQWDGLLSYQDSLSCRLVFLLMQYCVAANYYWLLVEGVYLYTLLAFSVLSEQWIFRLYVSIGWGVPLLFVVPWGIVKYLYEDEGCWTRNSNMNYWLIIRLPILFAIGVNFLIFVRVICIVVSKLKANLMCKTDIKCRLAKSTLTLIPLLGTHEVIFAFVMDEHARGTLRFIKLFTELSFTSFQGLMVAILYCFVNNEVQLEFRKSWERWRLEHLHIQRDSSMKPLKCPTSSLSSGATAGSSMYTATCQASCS
T1 sequence (P01275 100-127 partner limits assumed): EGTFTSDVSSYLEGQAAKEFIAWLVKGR
Procedure: EC20GLP-1(9-36) PAM cAMP Assay: Dose Response of Compound in the Presence of Fixed Concentration of GLP-1 (9-36)
GLP-1R CRE-bla CHO-K1 cells were seeded into 384-well white flat bottom plates at 10,000 cells/well/20 μL growth medium (DMEM-High glucose, 10% dialyzed FBS, 0.1 mM NEAA, 25 mM Hepes, 100 U/mL penicillin/100 μg/mL streptomycin, 5 μg/mL Blasticidin, 600 μg/mL Hygromycin) and incubated for 18 h at 37° C. in 5% CO2. Growth medium was replaced with 12 μL assay buffer (Hanks Balanced Salt solution, 10 mM Hepes, 0.1% BSA, pH7.4). A 5× compound dose response curve (12-point) was generated in assay buffer containing 1.5 mM IBMX, 12.5% DMSO. GLP-1(9-36) was diluted to 4.2 μM in assay buffer containing 1.5 mM IBMX and 12.5% DMSO. The 5× compound dose response was added (3 μL), followed by 0.5 μL of GLP-1(9-36) and cells were incubated for 30 min at 37° C. Direct detection of cAMP was carried out using DiscoveRx HitHunter cAMP kit according to manufacturer's instructions and luminescence was read using a SpectraMax M5 plate reader. Luminescence was converted to total cAMP using a cAMP standard curve and data was analyzed by non-linear regression to determine the EC50 and Emax.

[1] = Determination of absolute oral bioavailability in rats; format: in vivo; details: rat, plasma, fasted female Sprague-Dawley rats, intravenous 1 mg/kg
Procedure: Determination of Absolute Oral Bioavailability in Rats
All pharmacokinetic studies were conducted in fasted female Sprague-Dawely rats (Simonsen Laboratories or Harlan Laboratories). Rats were housed in an ALAAC accredited facility and the research was approved by the facilities Institutional Animal Care and Use Committee (IACUC). The animals were acclimated to the laboratory for at least 48 h prior to initiation of experiments.
Compounds were formulated in 20% hydroxy beta cyclodextrin or 20% captisol and 80%-25 mM NaPO4 Buffer (pH 8) (intravenous infusion), or 5% DMSO/5% Tween20 and 90% water (oral gavage or intraperitoneal injection). The concentration of the dosing solutions was verified by HPLC-UV. For intravenous dosing, compounds were administered into the tail vein to manually restrained animals (n=3 rats/compound). The intravenous dose was 1 mg/kg. Oral dosing was by gavage using a standard stainless steel gavage needle (n=2-4 rats/compound). The oral solution dose was 5 mg/kg. For compounds 1 and 3, the oral solution dose was 30 mg/kg. For both routes of administration, blood was collected into BD Microtainer tubes with Dipotassium EDTA as the anticoagulantant eight time-points after dosing with the final sample drawn 24 h post dose Plasma was separated by centrifugation and transferred to a polypropylene 96-well plate and kept at 4° C. until analysis.
Proteins were precipitated by adding 150 μL acetonitrile to 50 μL of plasma. Plates were mixed for 1 min on a plate shaker to facilitate protein precipitation and then centrifuged at 3,000 rpm for 10 min to pellet protein. The supernatant was transferred to a clean plate and centrifuged at 3,000 rpm for 10 min to pellet any remaining solid material prior to LC/MS/MS analysis. Calibration curve standards were prepared by spiking 54 compound stock in DMSO into rat plasma from untreated animals. An eight point standard curve spanning a range of 0.14 nM to 300 nM was included with each bio-analytical run. The standards were processed identically to the rat pharmacokinetic samples.
Concentrations in the rat pharmacokinetic samples were determined using a standardized HPLC-LC/MS/MS method relative to the eight point standard curve. The system consisted of a Leap CTC Pal injector, Agilent 1200 HPLC with binary pump coupled with an Applied Biosystems 4000 QTrap. Compounds were chromatographed on a Phenomenex Luna C8(2) 20×2 mm 2 um Mercury Cartridge with Security Guard. A gradient method was used with mobile phase A consisting of 0.1% formic acid in water and mobile phase B consisting of 0.1% formic acid in acetonitrile at flow rates varying from 0.7 to 0.8 mL/min. Ions were generated in positive ionization mode using an electrospray ionization (ESI) interface. Multiple reaction monitoring (MRM) methods were developed specific to each compound. The heated nebulizer was set at 500° C. with a nebulizer current of 5.1 μA. Collision energies used to generate daughter ions ranged between 29 and 80 V. Peak area obtained from MRM of the mass transitions specific for each compound were used for quantification. The limit of quantification of the method was typically 1.2 nM. Data were collected and analyzed using Analyst software version 1.5.1. Blood concentration versus time data were analyzed using non-compartmental methods (WinNonlin Phoenix version 6.2; model 200 for oral or intraperitoneal dosing and model 202 for intravenous infusion). Absolute oral bioavailability (%) was calculated using the following expression: (Oral AUC×IV Dose)/(IV AUC×Oral Dose)×100.

[2] = oral solution 30 mg/kg (compounds 1 and 3)

EC20 GLP-1 (9-36) PAM Activity max cAMP (GLP-1R) [nM] | EC50 (GLP-1R) [nM] | bioavailability [1, 2] [%] | bioavailability ([1]; oral solution 5 mg/kg) [%] | SMILES
240 | 3600 | < 1 |  | CCCCCCCOc1ccc(C(=O)Oc2ccc(CN(CC(=O)O)C(=O)c3ccc(NC(=O)Cc4ccc(OC)cc4)cc3)cc2)cc1 [Compound 1, 2-(N-(4-((4-(heptyloxy)benzoyl)oxy)benzyl)-4-(2-(4-methoxyphenyl)acetamido)benzamido)-acetic acid]
284 | 1300 | < 1 |  | CCCCCCCOc1ccc(C(=O)Oc2ccc(CN(CC(=O)O)C(=O)c3ccc(NC(=O)Cc4ccc(OC)cc4C(F)(F)F)cc3)cc2)cc1 [Compound 3, 2-(N-(4-((4-(heptyloxy)benzoyl)oxy)benzyl)-4-(2-(4-methoxy-2-(trifluoromethyl)phenyl)-acetamido)benzamido)acetic acid]
371 | 2400 |  |  | CCCCCCCOc1ccc(C(=O)Oc2ccc(CN(CC(=O)O)C(=O)c3ccc(NC(=O)Cc4ccc(C)c(OC)c4)cc3)cc2)cc1 [Compound 4, 2-(N-(4-((4-(heptyloxy)benzoyl)oxy)benzyl)-4-(2-(3-methoxy-4-methylphenyl)-acetamido)benzamido)acetic acid]
293 | 1200 |  |  | CCCCCCCCCOc1ccc(C(=O)Oc2ccc(CN(CC(=O)O)C(=O)c3ccc(NC(=O)Cc4ccc(OC)cc4)cc3)cc2)cc1 [Compound 16, 2-(4-(2-(4-methoxyphenyl)acetamido)-N-(4-((4-(nonyloxy)benzoyl)oxy)benzyl)benzamido) acetic acid]
281 | 1500 |  |  | CCCCCCCCOc1ccc(C(=O)Oc2ccc(CN(CC(=O)O)C(=O)c3ccc(NC(=O)Cc4ccc(OC)cc4)cc3)cc2)cc1 [Compound 17, 2-(4-(2-(4-methoxyphenyl)acetamido)-N-(4-((4-(octyloxy)benzoyl)oxy)benzyl)benzamido) acetic acid]
182 | 3100 |  |  | CCCCCCOc1ccc(C(=O)Oc2ccc(CN(CC(=O)O)C(=O)c3ccc(NC(=O)Cc4ccc(OC)cc4)cc3)cc2)cc1 [Compound 18, 2-(N-(4-((4-(hexyloxy)benzoyl)oxy)benzyl)-4-(2-(4-methoxyphenyl)acetamido)benzamido) acetic acid]
273 | 2500 |  |  | COc1ccc(CC(=O)Nc2ccc(C(=O)N(CC(=O)O)Cc3ccc(OC(=O)c4ccc(C5CCCCC5)cc4)cc3)cc2)cc1 [Compound 39, 2-(N-(4-((4-cyclohexylbenzoyl)oxy)benzyl)-4-(2-(4-methoxyphenyl)acetamido)benzamido) acetic acid]
397 | 2100 |  |  | CCCCCCCCc1ccc(C(=O)Oc2ccc(CN(CC(=O)O)C(=O)c3ccc(NC(=O)Cc4ccc(OC)cc4)cc3)cc2)cc1 [Compound 40, 2-(4-(2-(4-methoxyphenyl)acetamido)-N-(4-((4-octylbenzoyl)oxy)benzyl)benzamido)acetic acid]
252 | 7000 |  |  | COc1ccc(CC(=O)Nc2ccc(C(=O)N(CC(=O)O)Cc3ccc(OC(=O)c4ccc(OCCC(C)C)cc4)cc3)cc2)cc1 [Compound 46, 2-(N-(4-((4-(isopentyloxy)benzoyl)oxy)benzyl)-4-(2-(4-methoxyphenyl)acetamido)benzamido) acetic acid]
248 | 1300 |  |  | COc1ccc(CC(=O)Nc2ccc(C(=O)N(CC(=O)O)Cc3ccc(OC(=O)c4ccc(-c5ccc(C)cc5)cc4)cc3)cc2)c(C(F)(F)F)c1 [Compound 192, 2-(4-(2-(4-methoxy-2-(trifluoromethyl)phenyl)acetamido)-N-(4-((4′-methyl-[1,1′-biphenyl]-4-carbonyl)oxy)benzyl)benzamido)acetic acid]
307 | 500 |  |  | COc1ccc(CC(=O)Nc2ccc(C(=O)N(CC(=O)O)Cc3ccc(OC(=O)c4ccc(-c5ccc(C)cc5)cc4)cc3)c(OC)c2)c(C(F)(F)F)c1 [Compound 314, 2-(2-methoxy-4-(2-(4-methoxy-2-(trifluoromethyl)phenyl)acetamido)-N-(4-((4′-methyl-[1,1′-biphenyl]-4-carbonyl)oxy)benzyl)benzamido)acetic acid]
297 | 300 |  | 2 | COc1ccc(CC(=O)Nc2ccc(C(=O)N(CC(=O)O)Cc3ccc(-c4noc(-c5ccc(-c6ccc(C)cc6)cc5)n4)cc3)cc2)c(C(F)(F)F)c1 [Compound 354, 2-(4-(2-(4-methoxy-2-(trifluoromethyl)phenyl)acetamido)-N-(4-(5-(4′-methyl-[1,1′-biphenyl]-4-yl)-1,2,4-oxadiazol-3-yl)benzyl)benzamido)acetic acid]
266 | 2900 |  | 2 | COc1ccc(CC(=O)Nc2ccc(C(=O)N(CC(=O)O)Cc3ccc(-c4noc(-c5ccc(C)cc5)n4)cc3)cc2)c(C(F)(F)F)c1 [Compound 355, 2-(4-(2-(4-methoxy-2-(trifluoromethyl)phenyl)acetamido)-N-(4-(5-(p-tolyl)-1,2,4-oxadiazol-3-yl)benzyl)benzamido)acetic acid]
290 | 500 |  | 2 | COc1ccc(CC(=O)Nc2ccc(C(=O)N(CC(=O)O)Cc3ccc(-c4nc(-c5ccc(-c6ccc(C)cc6)cc5)co4)cc3)cc2)c(C(F)(F)F)c1 [Compound 360, 2-(4-(2-(4-methoxy-2-(trifluoromethyl)phenyl)acetamido)-N-(4-(4-(4′-methyl-[1,1′-biphenyl]-4-yl)oxazol-2-yl)benzyl)benzamido)acetic acid]
234 | 2700 |  |  | COc1ccc(CC(=O)Nc2ccc(C(=O)N(CC(=O)O)Cc3ccc(-c4n[nH]c(-c5ccc(-c6ccc(C)cc6)cc5)n4)cc3)cc2)c(C(F)(F)F)c1 [Compound 361, 2-(4-(2-(4-methoxy-2-(trifluoromethyl)phenyl)acetamido)-N-(4-(5-(4′-methyl-[1,1′-biphenyl]-4-yl)-1H-1,2,4-triazol-3-yl)benzyl)benzamido)acetic acid]
281 | 300 |  | 8 | COc1ccc(CC(=O)Nc2ccc(C(=O)N(CC(=O)O)Cc3ccc(-c4nc(-c5ccc(-c6ccc(C)cc6)cc5)no4)cc3)cc2)c(C(F)(F)F)c1 [Compound 362, 2-(4-(2-(4-methoxy-2-(trifluoromethyl)phenyl)acetamido)-N-(4-(3-(4′-methyl-[1,1′-biphenyl]-4-yl)-1,2,4-oxadiazol-5-yl)benzyl)benzamido)acetic acid]
